How the values were obtained:
[1] = test system: platelets; experiment: thromboelastography (TEG) of platelet concentrate; format: cell-based; settings: 2.4 mg Argatroban in 350 ml of platelets; straight line on the thromboelastogram
Method: In one experiment, platelet concentrates obtained by the buffy coat method were used for the study. Integrilin (Eptifibatide), a GPIIb/IIIa inhibitor, and Argabotran, a synthetic thrombin inhibitor, were added to platelet units at three times the therapeutic concentrations (i.e., 48 micrograms of Integrilin and 2.4 mg of Argatroban in 350 ml of platelets). Removal of the inhibitors was initiated by diafiltration. 15 ml of the platelet concentrate was diafiltered against 60 ml of a solution containing 20% fresh frozen plasma in a commercially used platelet storage solution (T-Sol). The samples were stored overnight and platelet functionality was measured on Day 2, by Thromboelastography (TEG) and using standard agonists such as TRAP and collagen.
In another experiment, Integrilin and Argabotran were added to platelet units at three times the therapeutic loading concentrations (i.e., 48 micrograms for Integrilin and 2.4 mg for Argatroban in 350 ml of platelets). Prior to the addition of the inhibitors, baseline data of platelet functionality was obtained. These baseline data included thromboelastography, which assesses overall platelet function and clot strength, as well as the TRAP test and the collagen test, which are additional markers of platelet functionality. […]

[2] = biological target: factor Xa (Homo sapiens, UniProt P00742); settings: cited from earlier work
[3] = test system: PT and αPTT; settings: more sensitive to the αPTT; cited from earlier work

Sequence of factor Xa (P00742 235-488 limits assumed): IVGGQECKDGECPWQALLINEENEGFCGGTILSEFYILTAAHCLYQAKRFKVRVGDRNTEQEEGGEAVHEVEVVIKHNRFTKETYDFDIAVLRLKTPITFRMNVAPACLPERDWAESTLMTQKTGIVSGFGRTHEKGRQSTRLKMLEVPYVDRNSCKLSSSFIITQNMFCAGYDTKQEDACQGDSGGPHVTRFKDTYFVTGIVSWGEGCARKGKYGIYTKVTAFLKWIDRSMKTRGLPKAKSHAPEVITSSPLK
Sequence of factor Xa (P00742 41-179 partner limits assumed): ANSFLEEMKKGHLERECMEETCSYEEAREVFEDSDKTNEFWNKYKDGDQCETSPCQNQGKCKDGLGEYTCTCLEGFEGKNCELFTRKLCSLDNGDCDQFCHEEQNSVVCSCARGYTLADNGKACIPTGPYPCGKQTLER

Row | SMILES | effect on activation of platelets on the thromboelastogram [1] | mode of factor Xa inhibition [2] | effect on PT and αPTT [3]
1 | CC1CNc2c(cccc2S(=O)(=O)N[C@@H](CCCNC(=N)N)C(=O)N2CC[C@@H](C)C[C@@H]2C(=O)O)C1 (stereo partly shown) [Argatroban] | completely blocks the activation of platelets |  | 
2 | CC(=N)N1CC[C@H](Oc2ccc([C@H](Cc3ccc4ccc(C(=N)N)cc4c3)C(=O)O)cc2)C1 [DX-9065a] |  | competitive manner | 
3 | COc1ccc2ccc(S(=O)(=O)N(C)[C@H]3CCN(Cc4csc(C(=N)N)c4)C3=O)cc2c1 [RPR-120844] |  | fast binding, reversible and competitive inhibitor | prolongs the PT and αPTT in a concentration-dependent manner

Source: patent publication US20120134974A1, “METHODS FOR REMOVING PLASMA” (BIOVEC TRANSFUSION, LLC, priority 2010, published 2012)
